Experimental data taken from patent US5329012A, “Bis(acyloxmethyl)imidazole compounds” (The Research Foundation of State University of New York, priority 1987, dated 1994).
Like-named read-outs stand apart in the source and are kept apart here.

Test system: lymphocytic leukemia P-388
Experiment: P-388 lymphocytic leukemia test in mice (NCI Protocol 1.200)
Type: in vivo, CDF1 female mice
Conditions: for Tox.Day Surv. (survivors/animals tested): day 5; for response vs control in vivo at 50 mg/kg / response vs control in vivo at 100 mg/kg / response vs control in vivo at 200 mg/kg / response vs control in vivo at 400 mg/kg / response vs control in vivo at 25 mg/kg / response vs control in vivo at 12.5 mg/kg: Mus musculus, P388, 120 h, read-out: % T/C (mean survival time)
Method: Various bis(acyloxymethyl)imidazole derivatives prepared in accord with Examples I-XVIII and designated Samples A-J, were tested for anti-tumor activity in vivo using the lymphocytic leukemia P-388 test procedure in mice with Samples A and B representing controls. The test system was that employed by the National Cancer Institute (NCI) for the preliminary screening of anti-tumor agents, according to Protocol 1.200 (Cancer Chemo. Reports Part 3, Vol. 3, No. 2, page 9; 1972). In the study ascitic fluid containing 6×10^6 cells was implanted in the peritoneal cavity of CDF1 female mice. Each imidazole was given in a single injection, at four to six different dose levels (5-6 mice/dose level) daily for five (5) days beginning 24 hours after tumor innoculation. The control animals received saline. Test criteria was in accord with NCI protocol as follows: toxicity day evaluations were carried out on day 5 (number of survivors/number of animals tested); % T/C data was calculated through mean survival time [% T/C=(MST treated/MST control)x100, where MST=mean survival time]; BWD refers to the body weight difference (grams) of test animals compared to control animals; KE refers to the log of the tumor cell population at the end of treatment relative to tumor cell population before treatment.
Table I sets out the identification of the compounds corresponding to the samples used in this and further Examples. Table II sets out the results of the P-388 tests.

[1] = 100 mg/kg/inj, daily for 5 days
[2] = 200 mg/kg/inj, daily for 5 days
[3] = 400 mg/kg/inj, daily for 5 days
[4] = 12.5 mg/kg/inj, daily for 5 days

| Compound | BWD (body weight difference vs control) (50 mg/kg/inj, daily for 5 days) [g] | KE (log tumor cell population end vs before treatment) (50 mg/kg/inj, daily for 5 days) | Tox.Day Surv. (survivors/animals tested) (50 mg/kg/inj, daily for 5 days) | BWD (body weight difference vs control) [1] [g] | KE (log tumor cell population end vs before treatment) [1] | Tox.Day Surv. (survivors/animals tested) [1] | BWD (body weight difference vs control) [2] [g] | KE (log tumor cell population end vs before treatment) [2] | Tox.Day Surv. (survivors/animals tested) [2] | BWD (body weight difference vs control) [3] [g] | KE (log tumor cell population end vs before treatment) [3] | response vs control in vivo at 50 mg/kg [%] | response vs control in vivo at 100 mg/kg [%] | response vs control in vivo at 200 mg/kg [%] | BWD (body weight difference vs control) (25 mg/kg/inj, daily for 5 days) [g] | KE (log tumor cell population end vs before treatment) (25 mg/kg/inj, daily for 5 days) | response vs control in vivo at 25 mg/kg (25 mg/kg/inj, daily for 5 days) [%] | response vs control in vivo at 50 mg/kg (50 mg/kg/inj, daily for 5 days) [%] | BWD (body weight difference vs control) [4] [g] | KE (log tumor cell population end vs before treatment) [4] | further results |
| --- | --- | --- | --- | --- | --- | --- | --- | --- | --- | --- | --- | --- | --- | --- | --- | --- | --- | --- | --- | --- | --- |
| CNC(=O)OCc1nc(SC)n(Cc2ccccc2)c1COC(=O)NC [E, 1-benzyl-2-methylthio-4,5-bis-(N-methylcarbonyloxymethyl)imidazole] | 0.9 | -1.19 | 6/6 | 0.4 | -1.19 | 6/6 | -0.4 | -0.44 | 6/6 | -1.2 | -0.71 | 116 | 116 | 129 |  |  |  |  |  |  | Tox.Day Surv. (survivors/animals tested) [3]: 6/6; response vs control in vivo at 400 mg/kg: 127% |
| COc1nc(COC(=O)NC(C)C)c(COC(=O)NC(C)C)n1C [J, 1-methyl-2-methoxy-4,5-bis-[N-(2-propyl)carbonyloxymethyl)imidazole] | -1.0 | 0.54 |  | -2.1 | 1.87 |  | -2.6 | 3.41 |  | -4.2 | 3.88 |  |  |  | -0.1 | -0.60 | 130 | 147 |  |  | response vs control in vivo at 100 mg/kg [1]: 166%; response vs control in vivo at 200 mg/kg [2]: 189%; response vs control in vivo at 400 mg/kg [3]: 196% |
| CNC(=O)OCc1ncn(-c2ccccc2)c1COC(=O)NC [A, 1-phenyl-4,5-bis(N-methylcarbonyloxymethyl)imidazole, reference compound] | -0.8 | -1.52 | 5/5 | -0.4 | -1.52 | 5/5 | -1.2 | -1.55 | 5/5 |  |  | 101 | 101 | 99 | 0.2 | -1.61 |  |  | -0.4 | -1.55 | Tox.Day Surv. (survivors/animals tested) [4]: 5/5; Tox.Day Surv. (survivors/animals tested) (25 mg/kg/inj, daily for 5 days): 5/5; response vs control in vivo at 12.5 mg/kg: 99%; response vs control in vivo at 25 mg/kg: 95% |
| CC(C)NC(=O)OCc1ncn(-c2ccccc2)c1COC(=O)NC(C)C [B, 1-phenyl-4,5-bis[N-(2-propyl)carbonyloxymethyl]-imidazole, reference compound] | 0.8 | -1.62 |  | 0.6 | -1.69 |  | 0.2 | toxic |  | -2.3 | toxic |  |  |  | -0.1 | -1.53 | 103 | 97 | -0.4 | -1.53 | response vs control in vivo at 12.5 mg/kg [4]: 103%; response vs control in vivo at 100 mg/kg [1]: 91%; response vs control in vivo at 200 mg/kg [2]: 90%; response vs control in vivo at 400 mg/kg [3]: 90% |
| CSc1nc(COC(=O)NC(C)C)c(COC(=O)NC(C)C)n1-c1ccccc1 [D, 1-phenyl-2-methylthio-4,5-bis-[N-(2-propyl)carbonyloxymethyl]imidazole] | 0.3 | -1.64 |  | -2.0 | -1.62 |  | -2.8 | -1.64 |  | -4.8 | -1.52 |  |  |  | 0.6 |  | 101 | 95 | -0.2 | -1.42 | response vs control in vivo at 12.5 mg/kg [4]: 111%; response vs control in vivo at 100 mg/kg [1]: 97%; response vs control in vivo at 200 mg/kg [2]: 90%; response vs control in vivo at 400 mg/kg [3]: 100% |
| CNC(=O)OCc1nc(SC)n(-c2ccccc2)c1COC(=O)NC [C, 1-phenyl-2-methylthio-4,5-bis-(N-methylcarbonyloxymethyl)imidazole] | -1.4 | 0.60 | 5/5 | -1.6 | 0.17 | 5/5 | -3.0 | 1.46 | 5/5 | -5.2 | toxic | 141 | 133 | 156 |  |  |  |  |  |  | Tox.Day Surv. (survivors/animals tested) [3]: 4/5 |
| CNC(=O)OCc1nc(-c2ccccc2)n(C)c1COC(=O)NC [G, 1-methyl-2-phenyl-4,5-bis-(N-methylcarbonyloxymethyl)imidazole] | -0.8 | -1.38 | 5/5 | -1.0 | -1.31 | 5/5 | -2.2 | -1.28 | 5/5 |  |  | 112 | 116 | 119 | 0.0 | -1.44 |  |  | -0.2 | -1.56 | Tox.Day Surv. (survivors/animals tested) [4]: 5/5; Tox.Day Surv. (survivors/animals tested) (25 mg/kg/inj, daily for 5 days): 5/5; response vs control in vivo at 12.5 mg/kg: 98%; response vs control in vivo at 25 mg/kg: 107% |
